Assay results taken from patent US20050176826A1, “Use of asc-1 inhibitors to treat neurological and psychiatric disorders” (H. Lundbeck A/S, priority 2002, published 2005).

Experiments:
NMDA receptor = NMDA receptor (Homo sapiens, UniProt Q05586); details: versus glycine; cited from earlier work
human asc-1 = target: T1, human asc-1 (Homo sapiens, UniProt Q9NS82); experiment: [3H]D-serine uptake into HEK293 cells expressing human asc-1; assay type: cell-based; details: for inhibition of [3H]D-serine uptake (in words): HEK293 cells expressing the cloned asc-1
T1 construct: expressed in transfected cells; host or cells: HEK293 (ATCC CRL 1573), transient, vector pCI/neo
T1 sequence (Q9NS82 1-523): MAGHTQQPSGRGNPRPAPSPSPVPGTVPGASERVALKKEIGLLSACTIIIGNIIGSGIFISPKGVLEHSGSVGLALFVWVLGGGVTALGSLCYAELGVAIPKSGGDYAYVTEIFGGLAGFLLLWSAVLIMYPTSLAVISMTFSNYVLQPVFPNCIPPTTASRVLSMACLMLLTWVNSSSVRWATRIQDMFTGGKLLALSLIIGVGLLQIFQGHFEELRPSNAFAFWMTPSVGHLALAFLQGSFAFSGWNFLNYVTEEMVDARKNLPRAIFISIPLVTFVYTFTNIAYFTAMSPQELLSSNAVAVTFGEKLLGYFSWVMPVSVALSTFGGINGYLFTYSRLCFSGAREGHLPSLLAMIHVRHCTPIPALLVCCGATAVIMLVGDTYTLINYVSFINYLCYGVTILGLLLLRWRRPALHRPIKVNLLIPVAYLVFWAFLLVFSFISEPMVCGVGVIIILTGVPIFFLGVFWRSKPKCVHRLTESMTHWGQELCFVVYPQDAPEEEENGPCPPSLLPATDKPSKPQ
Method: Uptake was determined 2-4 days after the transfection.
(§1) Into cortical membranes: Cortex from male Wistar rats (150-200 g) was homogenized in 0.40 M sucrose and centrifuged at 1000×g for 10 min. […] Test compounds and tissue (1 mg orig. tissue/well) were added to 96 well plates and incubated with [^3H]-D-serine (specific activity=26.8 Ci/mmol, PerkinElmer, Cambridge, U.K.) (100 nM final concentration) for 5 min at 25° C. Samples were filtered on Unifilter GF/B glass fiber (Packard Biosciences, Meriden, Conn., USA) and washed with 3×0.25 mL assay buffer. Measurements of [^3H]-D-serine uptake into whole HEK293 cells expressing human asc-1 were performed in 96 well plates with similar conditions except that the cells were incubated for 15 min with radioligand and washed by dipping twice in cold assay buffer following incubation with radioligand. Accumulated radioactivity was extracted from the cells by adding 200 μL scintillation fluid/well (Ultima Gold, Packard Biosciences) and the plates were counted in a Microplates Scintillation Counter (Packard Biosciences). The D-serine uptake in samples containing test compounds was compared to controls without added compound or controls where transport via the asc-1 was inhibited by addition of e.g. 30 mM L-alanine.

[1] = target: T2, D-serine-sensitive Na+-independent transporter in rat cortical membranes (Rattus norvegicus, UniProt P63116); experiment: Na+-independent [3H]D-serine uptake into rat cortical membranes (synaptosomes); assay type: biochemical; details: for inhibition of [3H]D-serine uptake (in words): rat cortical synaptosomes
T2 construct: from tissue; host or cells: rat cerebral cortex membranes (P2 synaptosomes), male Wistar rats
T2 sequence (P63116 1-530): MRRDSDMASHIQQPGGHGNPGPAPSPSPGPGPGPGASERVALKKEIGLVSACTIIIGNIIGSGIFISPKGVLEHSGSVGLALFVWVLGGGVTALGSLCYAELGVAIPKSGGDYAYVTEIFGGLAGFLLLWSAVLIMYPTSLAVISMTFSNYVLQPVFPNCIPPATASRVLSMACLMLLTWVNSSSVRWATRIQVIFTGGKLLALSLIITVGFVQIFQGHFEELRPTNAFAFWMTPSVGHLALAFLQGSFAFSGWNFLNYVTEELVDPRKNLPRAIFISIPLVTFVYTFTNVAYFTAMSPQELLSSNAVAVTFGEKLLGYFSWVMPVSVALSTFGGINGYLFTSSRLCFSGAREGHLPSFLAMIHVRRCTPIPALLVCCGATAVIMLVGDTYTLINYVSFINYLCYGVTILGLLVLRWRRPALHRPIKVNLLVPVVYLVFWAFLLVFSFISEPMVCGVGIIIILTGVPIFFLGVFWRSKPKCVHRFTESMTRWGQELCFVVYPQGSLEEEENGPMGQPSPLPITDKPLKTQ
T2 sequence (Q794F9 1-527 partner): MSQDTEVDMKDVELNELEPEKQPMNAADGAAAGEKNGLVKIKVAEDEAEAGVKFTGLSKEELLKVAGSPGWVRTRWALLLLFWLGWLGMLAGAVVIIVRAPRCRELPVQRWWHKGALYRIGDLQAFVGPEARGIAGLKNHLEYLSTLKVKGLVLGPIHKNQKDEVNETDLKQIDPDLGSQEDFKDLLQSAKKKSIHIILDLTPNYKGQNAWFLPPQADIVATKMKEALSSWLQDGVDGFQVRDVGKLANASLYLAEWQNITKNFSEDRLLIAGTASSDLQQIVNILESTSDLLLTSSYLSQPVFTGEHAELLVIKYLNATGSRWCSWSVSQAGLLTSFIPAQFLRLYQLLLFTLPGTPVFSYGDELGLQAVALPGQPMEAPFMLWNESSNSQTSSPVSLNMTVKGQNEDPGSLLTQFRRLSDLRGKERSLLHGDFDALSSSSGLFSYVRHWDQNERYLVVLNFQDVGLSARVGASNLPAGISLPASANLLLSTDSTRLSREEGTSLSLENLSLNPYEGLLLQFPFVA
Method: as §1

block of uptake via the asc system, including asc-1 (human asc-1; 30 mM)	block of [3H]D-serine uptake into rat cortical membranes ([1]; rat cortical membranes)	SMILES	co-agonist potency relative to glycine at the allosteric site on the NMDA receptor (NMDA receptor)	inhibition of [3H]D-serine uptake (in words) (human asc-1)	inhibition of [3H]D-serine uptake (in words) [1]
		N[C@H](CO)C(=O)O [D-serine]	3-4 fold		
completely block	completely blocks	C[C@H](N)C(=O)O [L-alanine]		effective inhibition	effective inhibition
		N=C(N)NCCC[C@H](N)C(=O)O [L-arginine]		Inactive	Inactive
		NC(=O)C[C@H](N)C(=O)O [L-asparagine]		Less effective, but significant inhibition	Less effective, but significant inhibition
		N[C@@H](CC(=O)O)C(=O)O [L-aspartate]		Inactive	Inactive
		N[C@@H](CS)C(=O)O [L-cysteine]		effective inhibition	effective inhibition
		N[C@@H](CSSC[C@H](N)C(=O)O)C(=O)O [L-cystine]		Inactive	Inactive
		N[C@@H](CCC(=O)O)C(=O)O [L-glutamate]		Inactive	Inactive
		NC(=O)CC[C@H](N)C(=O)O [L-glutamine]		Inactive	Inactive
		NCC(=O)O [L-glycine]		effective inhibition	effective inhibition
		N[C@@H](Cc1c[nH]cn1)C(=O)O [L-histidine]		Less effective, but significant inhibition	Less effective, but significant inhibition
		CC[C@H](C)[C@H](N)C(=O)O [L-isoleucine]		Less effective, but significant inhibition	Less effective, but significant inhibition
		CC(C)C[C@H](N)C(=O)O [L-leucine]		Less effective, but significant inhibition	Less effective, but significant inhibition
		NCCCC[C@H](N)C(=O)O [L-lysine]		Inactive	Inactive
		CSCC[C@H](N)C(=O)O [L-methionine]		Less effective, but significant inhibition	Less effective, but significant inhibition
		N[C@@H](Cc1ccccc1)C(=O)O [L-phenylalanine]		Less effective, but significant inhibition	Less effective, but significant inhibition
		O=C(O)[C@@H]1CCCN1 [L-proline]		Inactive	Inactive
		N[C@@H](CO)C(=O)O [L-serine]		effective inhibition	effective inhibition
		C[C@@H](O)[C@H](N)C(=O)O [L-threonine]		effective inhibition	effective inhibition
		N[C@@H](Cc1ccc(O)cc1)C(=O)O [L-tyrosine]		Less effective, but significant inhibition	Less effective, but significant inhibition
		CC(C)[C@H](N)C(=O)O [L-valine]		Less effective, but significant inhibition	Less effective, but significant inhibition
